Among the data in PMC4657098, “A Review of the Updated Pharmacophore for the Alpha 5 GABA(A) Benzodiazepine Receptor Model” (International Journal of Medicinal Chemistry, 2015) are Ki values, retold here.

What all share (set-up): expressed in transfected cells
One test deals with α5β3γ2 GABAA/BzR (Homo sapiens, UniProt P18507+P31644). Nature of the test: Competition binding to HEK cell membranes, α5β3γ2.
Another test deals with α3β3γ2 GABAA/BzR (Homo sapiens, UniProt P18507+P34903). Nature of the test: Competition binding to HEK cell membranes, α3β3γ2.
The target in the next test is α1β3γ2 GABAA/BzR (Homo sapiens, UniProt P14867+P18507). Nature of the test: Competition binding to HEK cell membranes, α1β3γ2.
The target in another test is α6β3γ2 GABAA/BzR (Homo sapiens, UniProt P18507+Q16445). Nature of the test: Competition binding to HEK cell membranes, α6β3γ2.
In another test the target is α2β3γ2 GABAA/BzR (Homo sapiens, UniProt P18507+P47869). Nature of the test: Competition binding to HEK cell membranes, α2β3γ2.

pKi: −log10 of the molar value. Where “and” joins values, the source holds several entries; their conditions need not be identical. Equal entries are not always repeated. Where two headings read alike, the source gives them in different places.

One may read the pKi as the negative decadic logarithm of the Ki, by convention in mol/L. In the case of `COc1ccc2c(c1)C(=O)N(C)Cc1c(C(=O)OC(C)(C)C)ncn1-2` [DM-215], the pKi was 9.53 at α5β3γ2 GABAA/BzR (read-out: Ki α5), 8.13 at α3β3γ2 GABAA/BzR (read-out: Ki α3), 8.17 on α1β3γ2 GABAA/BzR (read-out: Ki α1) and 8.08 at α6β3γ2 GABAA/BzR (read-out: Ki α6).
Take `O=c1c2c[nH]c3ccccc3c-2nn1-c1ccccc1` [QH-II-090]: the pKi on α2β3γ2 GABAA/BzR (read-out: Ki α2) was 10.10; at α5β3γ2 GABAA/BzR (read-out: Ki α5) it was 9.60; at α3β3γ2 GABAA/BzR (read-out: Ki α3), 9.92; on α1β3γ2 GABAA/BzR (read-out: Ki α1) it was 10.30; on α6β3γ2 GABAA/BzR (read-out: Ki α6) it was 7.77.
The matching figures for `c1ccc2c(c1)[nH]c1cnc3c4cccnc4[nH]c3c12` [LJD-III-15E]: 7.85, 7.15, 7.72, 8.71 and 6.00.
As for `CCOC(=O)c1ncc2[nH]c3ccc(OCc4cccc5ccccc45)cc3c2c1COC` [EDC-II-044], the pKi at α5β3γ2 GABAA/BzR (read-out: Ki α5) is 6.49; on α3β3γ2 GABAA/BzR (read-out: Ki α3), 6.53; on α1β3γ2 GABAA/BzR (read-out: Ki α1), 7.81; on α6β3γ2 GABAA/BzR (read-out: Ki α6), 6.00.
`CCOC(=O)c1ncoc1-c1ncn2c1C1CCN1C(=O)c1cc(C#C[Si](C)(C)C)ccc1-2` (centres unmarked) [RY-068 (11)]: the negative-log Ki (pKi) is 6.06 at α2β3γ2 GABAA/BzR (Figure 5, read-out: Ki α2); 7.43 on α5β3γ2 GABAA/BzR (Figure 5, read-out: Ki α5); 6.30 at α3β3γ2 GABAA/BzR (Figure 5, read-out: Ki α3); < 6.30 at α1β3γ2 GABAA/BzR (Figure 5, read-out: Ki α1); < 6.00 at α6β3γ2 GABAA/BzR (Figure 5, read-out: Ki α6).
`C#Cc1ccc2c(c1)C(c1ccccc1)=NCc1c(C(=O)OCC(F)(F)F)ncn1-2` [DM-II-20]: the pKi at α2β3γ2 GABAA/BzR (read-out: Ki α2) is 7.57; on α5β3γ2 GABAA/BzR (read-out: Ki α5), 7.81; on α3β3γ2 GABAA/BzR (read-out: Ki α3), 7.45; on α1β3γ2 GABAA/BzR (read-out: Ki α1), 7.27; on α6β3γ2 GABAA/BzR (read-out: Ki α6), 5.30.
In the case of `CN1Cc2c(C(=O)OC(C)(C)C)ncn2-c2ccc(N3CCCC3)cc2C1=O` [DM-139], the pKi on α5β3γ2 GABAA/BzR (read-out: Ki α5) was 8.03; at α3β3γ2 GABAA/BzR (read-out: Ki α3), 6.77; on α1β3γ2 GABAA/BzR (read-out: Ki α1) it was 8.24; at α6β3γ2 GABAA/BzR (read-out: Ki α6), 6.49.
As for `Cc1nnc2n1-c1ccc(Br)cc1C(c1ccccc1Cl)=NC2` [DM-II-90], the pKi at α2β3γ2 GABAA/BzR (read-out: Ki α2) was 9.00; at α5β3γ2 GABAA/BzR (read-out: Ki α5) it was 9.43; at α3β3γ2 GABAA/BzR (read-out: Ki α3), 9.20; at α1β3γ2 GABAA/BzR (read-out: Ki α1) it was 9.30; on α6β3γ2 GABAA/BzR (read-out: Ki α6) it was 5.30.
In the case of `CC(C)(C)OC(=O)c1ncn2c1[C@@H]1CCCN1C(=O)c1c(Br)cccc1-2` [BRETAZENIL, reference compound], the pKi on α2β3γ2 GABAA/BzR (Ki α2) is 9.19; on α5β3γ2 GABAA/BzR (Ki α5), 9.30; at α3β3γ2 GABAA/BzR (Ki α3), 9.70; at α1β3γ2 GABAA/BzR (Ki α1) it was 9.46; at α6β3γ2 GABAA/BzR (Ki α6), 7.90.
In the case of `C#Cc1ccc2c(c1)C(c1ccccc1F)=NCC(=O)N2` [JYI-60], the pKi on α2β3γ2 GABAA/BzR (read-out: Ki α2) is 8.79; at α5β3γ2 GABAA/BzR (read-out: Ki α5), 8.77; on α3β3γ2 GABAA/BzR (read-out: Ki α3), 8.37; on α1β3γ2 GABAA/BzR (read-out: Ki α1), 8.43; at α6β3γ2 GABAA/BzR (read-out: Ki α6), 5.30.
Regarding `Cc1nnc2n1-c1ccc(Cl)cc1C(c1ccccc1)=NC2` [alprazolam, reference compound], the pKi is 9.23 at α2β3γ2 GABAA/BzR (Ki α2); 8.81 on α5β3γ2 GABAA/BzR (Ki α5); 8.84 on α3β3γ2 GABAA/BzR (Ki α3); 9.10 on α1β3γ2 GABAA/BzR (Ki α1); 5.00 and 6.00 on α6β3γ2 GABAA/BzR (Ki α6).
Turning to `CN1Cc2c(C(=O)OC3CC3)ncn2-c2ccc(Cl)cc2C1=O` [CD-214], the pKi at α2β3γ2 GABAA/BzR (read-out: Ki α2) was 7.32; on α5β3γ2 GABAA/BzR (read-out: Ki α5), 8.01; on α3β3γ2 GABAA/BzR (read-out: Ki α3), 7.37; at α1β3γ2 GABAA/BzR (read-out: Ki α1) it was 7.79; on α6β3γ2 GABAA/BzR (read-out: Ki α6), 6.77.
In the case of `Cc1nnc2n1-c1ccc(Br)cc1C(c1ccccc1Cl)=NC2` [DM-II-90 (C17H12N4BrCl)], the negative-log Ki (pKi) is 9.00 at α2β3γ2 GABAA/BzR (read-out: Ki α2), 9.43 at α5β3γ2 GABAA/BzR (read-out: Ki α5), 9.20 at α3β3γ2 GABAA/BzR (read-out: Ki α3) and 5.30 at α6β3γ2 GABAA/BzR (read-out: Ki α6).
Regarding `CC(C)(C)OC(=O)c1ncn2c1C1CCCN1C(=O)c1cc(Br)ccc1-2` (centres unmarked) [JYI-01], the pKi on α5β3γ2 GABAA/BzR (read-out: Ki α5) is 7.97; on α3β3γ2 GABAA/BzR (read-out: Ki α3), 7.02; at α1β3γ2 GABAA/BzR (read-out: Ki α1) it was 7.23; on α6β3γ2 GABAA/BzR (read-out: Ki α6) it was 8.54.
In the case of `CCOC(=O)c1ncc2[nH]c3cc(OC)c(OC)cc3c2c1CC` [MSR-I-032], the pKi on α2β3γ2 GABAA/BzR (read-out: Ki α2) is 7.73; on α3β3γ2 GABAA/BzR (read-out: Ki α3), 8.40; on α1β3γ2 GABAA/BzR (read-out: Ki α1), 8.21; at α6β3γ2 GABAA/BzR (read-out: Ki α6) it was 7.13.
For the compound `CCOc1cc2c(cn1)[nH]c1ccccc12` [3 EBC, 3-Ethoxy-beta-carboline], the pKi at α5β3γ2 GABAA/BzR (read-out: Ki α5) was 6.08; at α3β3γ2 GABAA/BzR (read-out: Ki α3), 7.55; on α6β3γ2 GABAA/BzR (Ki α6), 6.00.
Take `O=C(OCC(F)(F)F)c1ncn2c1CN=C(c1ccccc1F)c1cc(-c3ccco3)ccc1-2` [JYI-54]: the pKi at α2β3γ2 GABAA/BzR (read-out: Ki α2) is 6.76; at α5β3γ2 GABAA/BzR (read-out: Ki α5) it was 7.24; at α3β3γ2 GABAA/BzR (read-out: Ki α3), 8.17; at α1β3γ2 GABAA/BzR (read-out: Ki α1), 8.54; on α6β3γ2 GABAA/BzR (read-out: Ki α6), 5.72.
